Reference: ChEMBL document CHEMBL5727076, “GDF-8 inhibitors” (2018)

Tests used:
TGF-beta receptor type-1 = TGF-beta receptor type-1 (Homo sapiens, UniProt P36897, T204D); assay: The reaction is incubated for 1 hour at room temperature and the HTRF signal was measured on an Envision plate reader (Ex: 340 nm; Em: 520 nm/495 nm). Inhibition data were calculated by comparison to no enzyme control reactions for 100% inhibition and vehicle-only reactions for 0% inhibition. The final concentration of reagents in the assay are 1 nM HIS-TGFβR1 T204D or HIS-TGFβR2 WT, 0.2 nM anti-HIS detection antibody, labeled small molecule probe (at Kd) and 0.5% DMSO. Dose response curves were generated to determine the concentration required inhibiting 50% of kinase activity (IC50). Compounds were dissolved at 10 mM in dimethylsulfoxide (DMSO) and evaluated at eleven concentrations.
Chain of TGF-beta receptor type-1 (P36897 34-503 T204D limits assumed): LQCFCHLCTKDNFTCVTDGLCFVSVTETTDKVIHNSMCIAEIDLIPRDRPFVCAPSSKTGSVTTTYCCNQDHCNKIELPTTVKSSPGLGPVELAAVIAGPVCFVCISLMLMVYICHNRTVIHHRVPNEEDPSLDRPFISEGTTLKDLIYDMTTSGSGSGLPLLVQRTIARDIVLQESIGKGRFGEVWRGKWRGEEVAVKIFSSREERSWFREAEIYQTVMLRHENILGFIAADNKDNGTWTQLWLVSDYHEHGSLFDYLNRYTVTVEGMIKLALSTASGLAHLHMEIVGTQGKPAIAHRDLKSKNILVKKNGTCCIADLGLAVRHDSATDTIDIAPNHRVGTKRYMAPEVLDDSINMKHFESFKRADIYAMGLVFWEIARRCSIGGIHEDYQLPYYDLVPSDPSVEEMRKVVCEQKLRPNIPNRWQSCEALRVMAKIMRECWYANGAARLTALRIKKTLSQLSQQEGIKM

TGF-beta receptor type-2 = TGF-beta receptor type-2 (Homo sapiens, UniProt P37173); assay: Compounds were dissolved at 10 mM in dimethylsulfoxide (DMSO) and evaluated at eleven concentrations.
Chain of TGF-beta receptor type-2 (P37173 whole entry): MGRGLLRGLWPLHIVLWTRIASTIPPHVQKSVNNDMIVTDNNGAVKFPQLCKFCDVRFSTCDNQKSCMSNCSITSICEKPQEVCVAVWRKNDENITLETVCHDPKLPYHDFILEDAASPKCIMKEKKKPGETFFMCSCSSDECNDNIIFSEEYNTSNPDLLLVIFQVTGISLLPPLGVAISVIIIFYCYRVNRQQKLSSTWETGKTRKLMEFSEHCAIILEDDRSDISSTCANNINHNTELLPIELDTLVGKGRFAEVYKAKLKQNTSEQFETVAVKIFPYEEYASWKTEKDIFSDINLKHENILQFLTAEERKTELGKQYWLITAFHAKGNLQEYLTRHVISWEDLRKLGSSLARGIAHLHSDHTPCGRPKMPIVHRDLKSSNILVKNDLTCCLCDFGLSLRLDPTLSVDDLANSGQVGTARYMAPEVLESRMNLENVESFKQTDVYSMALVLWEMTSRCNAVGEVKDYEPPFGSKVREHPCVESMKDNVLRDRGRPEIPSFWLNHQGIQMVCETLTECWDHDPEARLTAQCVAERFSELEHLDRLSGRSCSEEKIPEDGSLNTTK

IC50 (TGF-beta receptor type-1) [nM] | IC50 (TGF-beta receptor type-2) [nM] | SMILES
4 |  | Cc1cccc(-c2ncccc2-c2ccc3ncc(C(=O)O)n3c2)n1
2 | > 15000 | CNC(=O)c1cnc2ccc(-c3cccnc3-c3cccc(C)n3)cn12
11 | > 15000 | N#Cc1cnc2ccc(-c3cccnc3-c3cccc(C(F)(F)F)n3)cn12
6 | > 15000 | Cc1cccc(-c2ncccc2-c2ccn3ncc(C(N)=O)c3n2)n1
